Values of other authors, collected in patent publication US20080305994A1, “Pharmaceutical Compositions and Method for Treating, Reducing, Ameliorating, Alleviating, or Preventing Dry Eye” (priority 2007, published 2008).

Legend:
[1] = tested on: lipopolysaccharide ("LPS")-induced leukocyte recruitment within pulmonary arterioles, capillaries, and venules; conditions: rabbits, inhibition of PARP
[2] = tested on: intercellular adhesion molecule 1 ("ICAM-1"); conditions: rabbits; inhibition of PARP

## NC(=O)c1cccc(N)c1 [3-aminobenzamide]
[1]
  LPS-induced leukocyte recruitment within pulmonary arterioles, capillaries, and venules: reduced
[2]
  expression of intercellular adhesion molecule 1 (ICAM-1): suppressed
